pIC50: −log10 of the molar value.
Experiments:
Mus musculus [1] = experiment: Toxicity in nude mouse xenografted with human OS-RC-2 cells assessed as body weight loss at 24 mg/kg, iv administered once weekly measured on day 5 (reference value: 1.9%); format: organism-based; details: in vivo
Mus musculus [2] = experiment: Toxicity in nude mouse xenografted with human OS-RC2 cells assessed as body weight loss at 24 mg/kg, iv administered once weekly measured on day 15 (reference value: 20.2 %); format: organism-based; details: in vivo
OS-RC-2 [3] = experiment: Antitumor activity against human OS-RC2 cells xenografted in nude mouse assessed as reduction in tumor volume at 1.5 mg/kg, iv administered three times a week measured on day 5 relative to control; format: functional
OS-RC-2 [4] = experiment: Antitumor activity against human OS-RC2 cells xenografted in nude mouse assessed as reduction in tumor volume at 24 mg/kg, iv administered once weekly measured on day 8 relative to control; format: functional
OS-RC-2 [5] = experiment: Antitumor activity against human OS-RC2 cells xenografted in nude mouse assessed as tumor volume at 24 mg/kg, iv administered once weekly and measured on day 1 (reference value: 167.51 +/- 17.09 mm3); format: functional
HepG2 = experiment: Antiproliferative activity against human HepG2 cells after 48 hrs by MTT assay; format: functional, cell-based; details: HepG2, 48 h
Blood [6] = experiment: Prodrug conversion in Sprague-Dawley rat blood assessed as everolimus level at 2.724 mg/kg, iv at 8 hrs post dose by HPLC method; format: ADME, organism-based; details: in vivo
Serum = experiment: Prodrug conversion in rat serum assessed as everolimus formation after 4 hrs by HPLC analysis; format: ADME, cell-free
OS-RC-2 [7] = experiment: Antitumor activity against human OS-RC2 cells xenografted in nude mouse assessed as reduction in tumor volume at 1.5 mg/kg, iv administered three times a week measured on day 26 relative to control; format: functional
PC-3 = experiment: Antiproliferative activity against human PC3 cells after 48 hrs by MTT assay; format: functional, cell-based; details: PC-3, 48 h
Mus musculus [8] = experiment: Toxicity in nude mouse xenografted with human OS-RC2 cells assessed as body weight loss at 24 mg/kg, iv administered once weekly measured on day 8 (reference value: 8.5 %); format: organism-based; details: in vivo
Mus musculus [9] = experiment: Toxicity in nude mouse xenografted with human OS-RC2 cells assessed as body weight loss at 1.5 mg/kg administered three times a week intravenously and measured on Day 12 (reference value: 15 %); format: organism-based; details: in vivo, iv
OS-RC-2 [10] = experiment: Antitumor activity against human OS-RC2 cells xenografted in nude mouse assessed as tumor weight at 1.5 mg/kg, iv administered three times a week measured after 32 days (reference value: 0.68 +/- 0.06 g); format: functional
OS-RC-2 [11] = experiment: Antitumor activity against human OS-RC2 cells xenografted in nude mouse assessed as reduction in tumor volume at 1.5 mg/kg, iv administered three times a week measured on day 22 relative to control; format: functional
[12] = Tmax in Sprague-Dawley rat at 2.724 mg/kg, iv; format: ADME, organism-based; details: in vivo
Mus musculus [13] = experiment: Toxicity in nude mouse xenografted with human OS-RC-2 cells assessed as death at 24 mg/kg, iv administered once weekly measured after 32 days; format: organism-based; details: in vivo, 768 h
Mus musculus [14] = experiment: Toxicity in nude mouse xenografted with human OS-RC-2 cells assessed as body weight at 1.5 mg/kg, iv administered three times a week measured on day 1 (reference value: 20.4 +/- 0.33 g); format: organism-based; details: in vivo
[15] = Prodrug conversion in phosphate buffered saline at pH 7.4 assessed as everolimus formation
Mus musculus [16] = experiment: Toxicity in nude mouse xenografted with human OS-RC-2 cells assessed as body weight loss at 1.5 mg/kg, iv administered three times a week measured after 32 days (reference value: 33%); format: organism-based; details: in vivo, 768 h
Mus musculus [17] = experiment: Toxicity in nude mouse xenografted with human OS-RC2 cells assessed as body weight loss at 24 mg/kg, iv administered once weekly measured on day 26 (reference value: 28.2 %); format: organism-based; details: in vivo
NCI-H460 = experiment: Antiproliferative activity against human NCI-H460 cells after 48 hrs by MTT assay; format: functional, cell-based; details: NCI-H460, 48 h
Mus musculus [18] = experiment: Toxicity in nude mouse xenografted with human OS-RC2 cells assessed as body weight loss at 24 mg/kg, iv administered once weekly measured on day 29 (reference value: 31.2 %); format: organism-based; details: in vivo
Mus musculus [19] = experiment: Toxicity in nude mouse xenografted with human OS-RC2 cells assessed as body weight loss at 1.5 mg/kg administered three times a week intravenously and measured on Day 29 (reference value: 31.2 %); format: organism-based; details: in vivo, iv
OS-RC-2 [20] = experiment: Antitumor activity against human OS-RC2 cells xenografted in nude mouse assessed as reduction in tumor volume at 24 mg/kg, iv administered once weekly measured on day 19 relative to control; format: functional
Blood [21] = experiment: Prodrug conversion in Sprague-Dawley rat blood assessed as everolimus level at 2.724 mg/kg, iv at 6 hrs post dose by HPLC method; format: ADME, organism-based; details: in vivo
Blood [22] = experiment: Prodrug conversion in Sprague-Dawley rat blood assessed as everolimus level at 2.724 mg/kg, iv at 2 hrs post dose by HPLC method; format: ADME, organism-based; details: in vivo
DU-145 = experiment: Antiproliferative activity against human DU145 cells after 48 hrs by MTT assay; format: functional, cell-based; details: DU-145, 48 h
[23] = Half life in Sprague-Dawley rat at 2.724 mg/kg, iv; format: ADME, organism-based; details: in vivo
Blood [24] = experiment: Prodrug conversion in Sprague-Dawley rat blood assessed as everolimus level at 2.724 mg/kg, iv at 1 hr post dose by HPLC method; format: ADME, organism-based; details: in vivo
OS-RC-2 [25] = experiment: Antitumor activity against human OS-RC2 cells xenografted in nude mouse assessed as reduction in tumor volume at 1.5 mg/kg, iv administered three times a week measured on day 32 relative to control; format: functional
OS-RC-2 [26] = experiment: Antitumor activity against human OS-RC2 cells xenografted in nude mouse assessed as reduction in tumor volume at 1.5 mg/kg, iv administered three times a week measured on day 8 relative to control; format: functional
Mus musculus [27] = experiment: Toxicity in nude mouse xenografted with human OS-RC2 cells assessed as body weight loss at 1.5 mg/kg administered three times a week intravenously and measured on Day 22 (reference value: 23.1 %); format: organism-based; details: in vivo, iv
Mus musculus [28] = experiment: Toxicity in nude mouse xenografted with human OS-RC-2 cells assessed as body weight loss at 24 mg/kg, iv administered once weekly measured after 32 days (reference value: 33%); format: organism-based; details: in vivo, 768 h
Blood [29] = experiment: Prodrug conversion in Sprague-Dawley rat blood assessed as everolimus level at 2.724 mg/kg, iv at 1.5 hrs post dose by HPLC method; format: ADME, organism-based; details: in vivo
Blood [30] = experiment: Prodrug conversion in Sprague-Dawley rat blood assessed as everolimus level at 2.724 mg/kg, iv at 24 hrs post dose by HPLC method; format: ADME, organism-based; details: in vivo

With CO[C@H]1C[C@@H]2CC[C@@H](C)[C@@](O)(O2)C(=O)C(=O)N2CCCC[C@H]2C(=O)O[C@H]([C@H](C)C[C@@H]2CC[C@@H](OCCOC(=O)CSC[C@H](NC(=O)CC[C@H](N)C(=O)O)C(=O)NCC(=O)O)[C@H](OC)C2)CC(=O)[C@H](C)/C=C(\C)[C@@H](O)[C@@H](OC)C(=O)[C@H](C)C[C@H](C)\C=C/C=C/C=C/1C as the compound, how does the Activity (Mus musculus [1]) read?
Its Activity is 6.2%.

And the Activity (Mus musculus [2])?
The Activity was 8.9%.

What about the T/C (OS-RC-2 [3]) of the same compound?
Its T/C is 0.72%.

What about the T/C (OS-RC-2 [4]) of the same compound?
The T/C was 0.41%.

And the Activity (OS-RC-2 [5])?
The Activity was 167.06 mm3.

And the pIC50 (HepG2)?
The pIC50 was 4.95.

And the Drug metabolism (Blood [6])?
The Drug metabolism was 6.8915 ng/mL.

And the Drug metabolism (Serum)?
The Drug metabolism was “Metabolite_Detected”.

What about the T/C (OS-RC-2 [7]) of the same compound?
Its T/C is 0.52%.

What about the pIC50 (PC-3) of the same compound?
Its pIC50 is 4.59.

What about the Activity (Mus musculus [8]) of the same compound?
Its Activity is 5.3%.

And the Activity (Mus musculus [9])?
Its Activity is 9.5%.

And the Activity (OS-RC-2 [10])?
The Activity was 0.29 g.

And the T/C (OS-RC-2 [11])?
Its T/C is 0.56%.

What about the Tmax [12] of the same compound?
Its Tmax is 4.98 min.

And the Activity (Mus musculus [13])?
The Activity was “Non-Toxic”.

What about the Activity (Mus musculus [14]) of the same compound?
Its Activity is 20.67 g.

And the Drug metabolism [15]?
The Drug metabolism was “Metabolite not detected”.

And the Activity (Mus musculus [16])?
The Activity was 12.3%.

And the Activity (Mus musculus [17])?
The Activity was 10.2%.

What about the pIC50 (NCI-H460) of the same compound?
The pIC50 was 4.57.

What about the Activity (Mus musculus [18]) of the same compound?
The Activity was 10.5%.

What about the Activity (Mus musculus [19]) of the same compound?
The Activity was 11.5%.

What about the T/C (OS-RC-2 [20]) of the same compound?
Its T/C is 0.49%.

What about the Drug metabolism (Blood [21]) of the same compound?
The Drug metabolism was 8.113 ng/mL.

And the Drug metabolism (Blood [22])?
The Drug metabolism was 28.155 ng/mL.

What about the pIC50 (DU-145) of the same compound?
The pIC50 was 4.25.

What about the half-life [23] of the same compound?
The half-life was 2.3 h.

And the Drug metabolism (Blood [24])?
The Drug metabolism was 73.5532 ng/mL.

And the T/C (OS-RC-2 [25])?
Its T/C is 0.52%.

What about the T/C (OS-RC-2 [26]) of the same compound?
Its T/C is 0.57%.

What about the Activity (Mus musculus [27]) of the same compound?
Its Activity is 11.5%.

And the Activity (Mus musculus [28])?
The Activity was 10.7%.

And the Drug metabolism (Blood [29])?
Its Drug metabolism is 40.4142 ng/mL.

What about the Drug metabolism (Blood [30]) of the same compound?
The Drug metabolism was 2.3295 ng/mL.
